Results: US9464058B2 (Hoffmann-La Roche Inc., priority 2012, dated 2016)

Tests used:
[1] = biological target: T1, human CYP11B2 (Homo sapiens, UniProt P19099); assay: G-402 cellular enzyme assay, human CYP11B2 (aldosterone release, HTRF); assay type: cell-based; details: G-402 cells expressing human CYP11B2; 1 μM Deoxycorticosterone; 16 h
T1 construct: expressed in transfected cells
T1 sequence (P19099 25-503): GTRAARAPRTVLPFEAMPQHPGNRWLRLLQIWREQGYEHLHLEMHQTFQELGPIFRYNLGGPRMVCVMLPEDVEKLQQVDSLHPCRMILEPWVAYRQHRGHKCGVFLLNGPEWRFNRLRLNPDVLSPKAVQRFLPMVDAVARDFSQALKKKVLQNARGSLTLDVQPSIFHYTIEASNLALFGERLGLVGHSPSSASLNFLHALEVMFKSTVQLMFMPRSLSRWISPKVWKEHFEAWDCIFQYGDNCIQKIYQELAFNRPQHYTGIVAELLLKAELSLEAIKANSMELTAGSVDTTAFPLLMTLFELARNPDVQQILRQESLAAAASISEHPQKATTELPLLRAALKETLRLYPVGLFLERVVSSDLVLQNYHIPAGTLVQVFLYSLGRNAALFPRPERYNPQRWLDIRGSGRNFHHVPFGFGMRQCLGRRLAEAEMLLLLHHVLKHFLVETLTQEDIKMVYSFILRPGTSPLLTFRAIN
Text: (§1) Herein we identified the use of the G-402 cell line as a host cell to ectopically express (transiently or stably) enzymes of the CYP11 family. Specifically we developed stable G-402 cells expressing ectopically human CYP11B1, human CYP11B2, human CYP11A1, cynomolgus CYP11B1 or cynomolgus CYP11B2 enzyme activity. Importantly, the identified cell line G-402 expresses co-factors (adrenodoxin and adrenodoxin reductase) important for the activity of the CYP11 family, and no relevant enzyme activity of the CYP11 family (in comparison to H295R cells) was detected in these cells. Therefore the G-402 cell line is uniquely suited as a host cell for the ectopic expression of enzymes from the CYP11 family.
(§2) G-402 cells can be obtained from ATCC(CRL-1440) and were originally derived from a renal leiomyoblastoma.
(§3) The expression plasmids contains the ORF for either human/cyno CYP11B1 or CYP11B2 under the control of a suitable promoter (CMV-promoter) and a suitable resistance marker (neomycin). Using standard techniques the expression plasmid is transfected into G-402 cells and these cells are then selected for expressing the given resistance markers. Individual cell-clones are then selected and assessed for displaying the desired enzymatic activity using 11-Deoxycorticosterone (Cyp11B2) or 11-Deoxycortisol (Cyp11B1) as a substrate.
(§4) G-402 cells expressing CYP11 constructs were established as described above and maintained in McCoy's 5a Medium Modified, ATCC Catalog No. 30-2007 containing 10% FCS and 400 μg/ml G418 (Geneticin) at 37° C. under an atmosphere of 5% CO2/95% air. Cellular enzyme assays were performed in DMEM/F12 medium containing 2.5% charcoal treated FCS and appropriate concentration of substrate (0.3-10 uM 11-Deoxycorticosterone, 11-Deoxycortisol or Corticosterone). For assaying enzymatic activity, cells were plated onto 96 well plates and incubated for 16 h. An aliquot of the supernatant is then transferred and analyzed for the concentration of the expected product (Aldosterone for CYP11B2; Cortisol for CYP11B1). The concentrations of these steroids can be determined using HTRF assays from CisBio analyzing either Aldosterone or Cortisol.
(§5) Inhibition of the release of produced steroids can be used as a measure of the respective enzyme inhibition by test compounds added during the cellular enzyme assay. The dose dependent inhibition of enzymatic activity by a compound is calculated by means of plotting added inhibitor concentrations (x-axes) vs. measured steroid/product level (y-axes). The inhibition is then calculated by fitting the following 4-parameter sigmoidal function (Morgan-Mercer-Flodin (MMF) model) to the raw data points using the least squares method:
(§6) [formula] wherein A is the maximum y value, B is the EC50 factor determined using XLFit, C is the minimum y value and D is the slope value.
(§7) EC50 values for compounds claimed herein were tested with the G402-based assay system described. Cyp11B2 enzyme activity was tested in presence of 1 μM Deoxycorticosterone and variable amounts of inhibitors; Cyp11B1 enzyme activity was tested in presence of 1 μM Deoxycortisol and variable amounts of inhibitors.

[2] = biological target: T2, human CYP11B1 (Homo sapiens, UniProt P15538); assay: G-402 cellular enzyme assay, human CYP11B1 (cortisol release, HTRF); assay type: cell-based; details: G-402 cells expressing human CYP11B1; 1 μM Deoxycortisol; 16 h
T2 construct: expressed in transfected cells
T2 sequence (P15538 25-503): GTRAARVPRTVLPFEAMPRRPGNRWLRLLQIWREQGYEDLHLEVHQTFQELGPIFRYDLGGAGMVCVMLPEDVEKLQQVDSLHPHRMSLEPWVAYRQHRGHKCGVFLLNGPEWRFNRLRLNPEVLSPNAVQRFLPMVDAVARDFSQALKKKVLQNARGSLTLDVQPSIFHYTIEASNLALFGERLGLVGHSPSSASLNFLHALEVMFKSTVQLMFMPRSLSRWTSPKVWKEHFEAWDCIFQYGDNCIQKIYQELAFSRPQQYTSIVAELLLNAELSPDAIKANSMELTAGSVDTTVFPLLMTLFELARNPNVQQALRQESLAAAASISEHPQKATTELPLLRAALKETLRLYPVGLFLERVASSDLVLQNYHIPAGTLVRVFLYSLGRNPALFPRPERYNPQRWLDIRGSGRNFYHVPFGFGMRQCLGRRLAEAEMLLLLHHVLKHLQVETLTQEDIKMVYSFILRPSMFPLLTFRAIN
Text: as §1, §2, §3, §4, §5, §6, §7

SMILES	EC50 [1] [nM]	EC50 [2] [nM]
Cn1cncc1C(=O)c1ccc(F)c(Cl)c1 [Example 32, (3-Chloro-4-fluoro-phenyl)-(3-methyl-3H-imidazol-4-yl)-methanone]	11.7	304
CCn1cncc1C(=O)c1ccc(SC(F)(F)F)c(OC)c1 [Example 80, (3-Ethyl-3H-imidazol-4-yl)-(3-methoxy-4-trifluoromethylsulfanyl-phenyl)-methanone]	12.9	634
Cn1cncc1C(=O)c1ccc(Cl)cc1Cl [Example 11, (2,4-Dichloro-phenyl)-(3-methyl-3H-imidazol-4-yl)-methanone]	216	1800
N#Cc1ccc(C(=O)c2cncn2CC(F)(F)F)cc1 [Example 20, 4-[3-(2,2,2-Trifluoro-ethyl)-3H-imidazole-4-carbonyl]-benzonitrile]	23.5	190
Cn1cncc1C(=O)c1ccc(F)c(C#N)c1 [Example 45, 2-Fluoro-5-(3-methyl-3H-imidazole-4-carbonyl)-benzonitrile]	575	11300
CCC(CC)n1cncc1C(=O)c1cccc(C#N)c1 [Example 83, 3-[3-(1-Ethyl-propyl)-3H-imidazole-4-carbonyl]-benzonitrile]	5.7	57
Cn1cncc1C(=O)c1ccc(Br)cc1 [Example 68, (4-Bromo-phenyl)-(3-methyl-3H-imidazol-4-yl)-methanone]	18.6	488
Cn1cncc1C(=O)c1ccc(Cl)cc1 [Example 1, (4-Chloro-phenyl)-(3-methyl-3H-imidazol-4-yl)-methanone]	62.3	195
CCn1cncc1C(=O)c1ccc(Cl)c(Cl)c1 [Example 15, (3,4-Dichloro-phenyl)-(3-ethyl-3H-imidazol-4-yl)-methanone]	1.8	20
N#Cc1ccc(-n2cncc2C(=O)c2ccc(Cl)cc2)cc1Cl [Example 77, 2-Chloro-4-[5-(4-chloro-benzoyl)-imidazol-1-yl]-benzonitrile]	1.9	9.8
CCC(C)n1cncc1C(=O)c1ccc(F)c(C#N)c1 (centres unmarked) [Example 65, 5-(3-sec-Butyl-3H-imidazole-4-carbonyl)-2-fluoro-benzonitrile]	21.5	88.2
COc1cc(C(=O)c2cncn2C)ccc1SC(F)(F)F [Example 79, (3-Methoxy-4-trifluoromethylsulfanyl-phenyl)-(3-methyl-3H-imidazol-4-yl)-methanone]	14.8	1580
C#Cc1ccc(C(=O)c2cncn2CC)cc1 [Example 48, (3-Ethyl-3H-imidazol-4-yl)-(4-ethynyl-phenyl)-methanone]	4.3	33
CCn1cncc1C(=O)c1ccc(SC(F)(F)F)cc1 [Example 74, (3-Ethyl-3H-imidazol-4-yl)-(4-trifluoromethylsulfanyl-phenyl)-methanone]	235	1320
COc1cc(C(=O)c2cncn2C)ccc1SC [Example 50, (3-Methoxy-4-methylsulfanyl-phenyl)-(3-methyl-3H-imidazol-4-yl)-methanone]	14.8	687
Cn1cncc1C(=O)c1ccc(C#N)c(Cl)c1 [Example 42, 2-Chloro-4-(3-methyl-3H-imidazole-4-carbonyl)-benzonitrile]	7.4	89.3

More lines, now with the values ahead:

EC50 [1] [nM]	EC50 [2] [nM]	SMILES
4.9	167	Cn1cncc1C(=O)c1ccc(Cl)c(Cl)c1 [Example 3, (3,4-Dichloro-phenyl)-(3-methyl-3H-imidazol-4-yl)-methanone]
0.2	8.7	COc1cc(C(=O)c2cncn2C(C)C)ccc1SC [Example 61, (3-Isopropyl-3H-imidazol-4-yl)-(3-methoxy-4-methylsulfanyl-phenyl)-methanone]
0.2	1	CC(C)n1cncc1C(=O)c1ccc(C#N)c(Cl)c1 [Example 49, 2-Chloro-4-(3-isopropyl-3H-imidazole-4-carbonyl)-benzonitrile]
87.2	890	N#Cc1cccc(C(=O)c2cncn2C2CC2)c1 [Example 58, 3-(3-Cyclopropyl-3H-imidazole-4-carbonyl)-benzonitrile]
40.9	1070	Cn1cncc1C(=O)c1ccc2sccc2c1 [Example 44, Benzo[b]thiophen-5-yl-(3-methyl-3H-imidazol-4-yl)-methanone]
3.2	132	O=C(c1ccc(Cl)c(F)c1)c1cncn1-c1ccc(Cl)cc1 [Example 92, (4-Chloro-3-fluoro-phenyl)-[3-(4-chloro-phenyl)-3H-imidazol-4-yl]-methanone]
42.7	264	CCC(CC)n1cncc1C(=O)c1ccc(SC(F)(F)F)cc1 [Example 76, [3-(1-Ethyl-propyl)-3H-imidazol-4-yl]-(4-trifluoromethylsulfanyl-phenyl)-methanone]
22.8	364	CCSc1ccc(C(=O)c2cncn2C2CC2)cc1 [Example 70, (3-Cyclopropyl-3H-imidazol-4-yl)-(4-ethylsulfanyl-phenyl)-methanone]
0.3	3.5	CCC(C)n1cncc1C(=O)c1ccc(Cl)cc1 (centres unmarked) [Example 17]
2.6	3620	O=C(c1ccc(Cl)cc1)c1cncn1-c1ccc(Cl)cc1 [Example 90, (4-Chloro-phenyl)-[3-(4-chloro-phenyl)-3H-imidazol-4-yl]-methanone]
0.7	3.3	CC(C)n1cncc1C(=O)c1ccc(Cl)c(F)c1 [Example 39, (4-Chloro-3-fluoro-phenyl)-(3-isopropyl-3H-imidazol-4-yl)-methanone]
49.3	151	Cn1cncc1C(=O)c1ccc(F)cc1 [Example 23, (4-Fluoro-phenyl)-(3-methyl-3H-imidazol-4-yl)-methanone]
109	1210	CCn1cncc1C(=O)c1cccc(C#N)c1 [Example 56, 3-(3-Ethyl-3H-imidazole-4-carbonyl)-benzonitrile]
6.1	52.9	O=C(c1ccc(Cl)cc1)c1cncn1C1CC1 [Example 19, (4-Chloro-phenyl)-(3-cyclopropyl-3H-imidazol-4-yl)-methanone]
447	2210	N#Cc1cc(C(=O)c2cncn2C2CC2)ccc1F [Example 66, 5-(3-Cyclopropyl-3H-imidazole-4-carbonyl)-2-fluoro-benzonitrile]
